Data taken from US9173935B2, “Phospholipid drug analogs” (Telormedix SA, priority 2010, dated 2015).
Like-named read-outs stand apart in the source and are kept apart here.

Assays:
[1] = Solubility, method of European Pharmacopoeia 6.0; format: physicochemical
Procedure: The method reported in the European Pharmacopoeia 6.0 was used.
Batch CH730/16/8g was tested according to the method described in E. Ph: DMSO was added in 0.1 mL portions to 103.7 mg of product and the suspension was shaken with a Vortex instrument for 3 min after each addition. […] The batches CH730/16/8c, CH730/16/8g and CH730/23/8e were then tested stirring each suspension for a longer time; 100 mg of each batch dissolved completely in 0.2 mL of DMSO after stirring for 30 minutes.

[2] = Storage stability by HPLC (solid or chloroform solution; temperature, light); format: physicochemical; conditions: room temperature, natural light
Procedure: At this point, a stability study was conducted on batch CH730/16/8g.
The samples were analyzed at t=0 and after 20 days.

PBMCs = experiment: IL-6 and TNF-alpha secretion in PBMCs from three donors (ELISA); format: cell-based, human; conditions: read-out: EC50 values, IL-6 secretion
Procedure: EC50 values were determined for control and each drug candidate for IL-6 and TNF-alpha secretion. […] The cells were treated with TLR7 agonists for 24 hours in 7 doses. The conditioned media was removed for ELISA analyses for IL-6 and TNF-alpha, and cell survival determined by the XTT method according to the protocol from the supplier. […] Concentrations of IL-6 and TNF-alpha were determined by ELISA from R&D Systems using the Microsoft Excel Software. The results were analyzed in Graph Pad Prism in order to prepare dose-response curves, and for determination of EC50 values.

human PBMCs = experiment: IL-6 secretion in human PBMCs, two batches of Compound A and SC12; format: cell-based; conditions: 24 h, 4 doses
Procedure: PBMCs were purified from two donors and plated into 96 well plates at 2×10^5 cells/well in RPMI media including human 2% heat inactivated AB serum, glutamine, Pen-strep and R-mercapto-ethanol. The cells were treated with TLR7 agonists for 24 h in 4 doses. The conditioned media was removed for ELISA analyses for IL-6, and the EC50 value determined for each compound and each batch.
All compounds were tested in four concentrations (10-1-0.1-0.01 micromolar).
Concentrations of IL-6 were determined by ELISA from R&D Systems using the Microsoft Excel software. The results were analyzed in Graph Pad Prism in order to prepare dose-response curves, and for determination of EC50 values.

[3] = Plasma stability, first experiment, rat plasma; format: in vitro ADME
Procedure: (§1) A 10 μl of MeOH was added to improve solubility. […] The supernatant fractions were analyzed by LC/MS/MS. […] Percent loss of substrate in incubations was determined to estimate the in vitro half life of the test compound.

[4] = Plasma stability and metabolic profiling, first experiment, rabbit plasma; format: in vitro ADME
Procedure: as §1, with “compound. […] Assignment of the structures was done by comparison of the MS/MS analysis of the spectra with the parent spectrum.” for “compound.”

[5] = Plasma stability, first experiment, minipig plasma; format: in vitro ADME
Procedure: as §1

[6] = Plasma stability and metabolic profiling, first experiment, human plasma; format: in vitro ADME
Procedure: as §1, with “compound. […] Assignment of the structures was done by comparison of the MS/MS analysis of the spectra with the parent spectrum.” for “compound.”

[7] = Plasma stability, second experiment, human plasma; conditions: human, plasma
Procedure: Second experiment: Test compounds (5 mM in DMSO) were diluted at the final concentration of 250 μM with ACN-MeOH 1:1.
Human plasma (1.180 ml) was spiked with 20 μl of 250 μM solution of the compound (4.16 μM final concentration) and aliquots of 50 μl volume were taken at 0, 15, 30, 60, 120 min and 5 hrs, and immediately quenched with 200 μl of a solution of Verapamil 250 ng/ml (internal standard, I.S.) in ACN:MeOH 95:5. Samples were then centrifuged for 20 min at 3000 rpm at 10° C. and analyzed as reported below. […] The supernatant fractions were analyzed by LC/MS/MS. Zero-time incubations were used as 100% values.
Stability was calculated as percentage remaining of the area ratio compound/I.S. at each time point vs. area ratio compound/I.S. at time 0 min.

[8] = system: recombinant protein antigens from Plasmodium falciparum and Mycobacterium ulcerans; experiment: Pilot immunization study with adjuvanted protein antigens; format: in vivo, mice; conditions: three s.c. immunizations, 10 nMol adjuvant
Procedure: A pilot immunization study was conducted using Compound A and SC12 adjuvanted protein antigens. The immunization experiments were performed with two recombinant proteins expressed in E. coli. One antigen was derived from the malaria parasite Plasmodium falciparum and the other one from Mycobacterium ulcerans, which cause the ulcerative skin disease Buruli ulcer.

RAW.264 cells = experiment: Intracellular uptake in RAW.264 cells (LC-MS); format: cell-based; conditions: 10 microM
Procedure: 5×10^6 RAW.264 cells were adhered overnight in 10 cm tissue culture dishes. […] […] Supernatant (2 ml) and cells (pellets) were collected by trypsinization and frozen at […] for subsequent analysis by LC-MS.

**Q.** With `CCCCCCCC/C=C\CCCCCCCC(=O)OCC(COP(=O)(O)OCCNC(=O)c1ccc(Cn2c(=O)[nH]c3c(N)nc(OCCOC)nc32)cc1)OC(=O)CCCCCCC/C=C\CCCCCCCC` (stereo not shown) [Compound A, 2-(4-((6-amino-2-(2-methoxyethoxy)-8-oxo-7H-purin-9(8H)-yl)methyl)benzamido)ethyl 2,3-bis(oleoyloxy)propyl phosphate] as the molecule, how does the “Solubility in DMSO” value [1] read?
**A.** soluble

**Q.** What about the Solubility in acetonitrile [1] of the same molecule?
**A.** not soluble

**Q.** What about the Solubility in water [1] of the same molecule?
**A.** not soluble

**Q.** And the “Purity (HPLC)” value ([2]; retest 12 Jun. 2009 (test 20 May 2009))?
**A.** Purity: 67.2%

**Q.** And the “Purity (HPLC)” value ([2]; retest 16 Jun. 2009 (test 10 Jun. 2009))?
**A.** Purity: 44.8%

**Q.** What about the “Purity (HPLC)” value ([2]; retest 17 Jun. 2009 (test 20 May 2009)) of the same molecule?
**A.** Purity: 58.9%

**Q.** And the “Purity (HPLC)” value ([2]; retest 18 Jun. 2009 (test 11 Jun. 2009))?
**A.** Purity: 71.5%

**Q.** And the “Purity (HPLC)” value ([2]; test date 10 Jun. 2009)?
**A.** Purity: 57.5%

**Q.** And the “Purity (HPLC)” value ([2]; test date 11 Jun. 2009)?
**A.** Purity: 81.4%

**Q.** What about the “Purity (HPLC)” value ([2]; test date 20 May 2009) of the same molecule?
**A.** Purity: 89.6%

**Q.** What about the EC50 (PBMCs; D1, first experiments on three donors) of the same molecule?
**A.** 460 nM

**Q.** What about the EC50 (PBMCs; D2, first experiments on three donors) of the same molecule?
**A.** 740 nM

**Q.** What about the EC50 (PBMCs; D3, first experiments on three donors) of the same molecule?
**A.** 255 nM

**Q.** And the EC50 (human PBMCs; Donor 1, listed as Compound A new 20289)?
**A.** 721 nM

**Q.** What about the EC50 (human PBMCs; Donor 1, listed as Compound A old Ch730/25/8) of the same molecule?
**A.** 734 nM

**Q.** What about the EC50 (human PBMCs; Donor 2, listed as Compound A new 20289) of the same molecule?
**A.** 521 nM

**Q.** What about the EC50 (human PBMCs; Donor 2, listed as Compound A old Ch730/25/8) of the same molecule?
**A.** 392 nM

**Q.** What about the Plasma stability classification [3] of the same molecule?
**A.** unstable

**Q.** And the “% Remaining” value ([3]; 0 min)?
**A.** 100%

**Q.** What about the “% Remaining” value ([3]; 15 min) of the same molecule?
**A.** 73.8 ± 4.5%

**Q.** And the “% Remaining” value ([3]; 30 min)?
**A.** 67.1 ± 8.8%

**Q.** And the “% Remaining” value ([3]; 60 min)?
**A.** 25.2 ± 0.5%

**Q.** What about the “% Remaining” value ([3]; 120 min) of the same molecule?
**A.** 21.4 ± 1.9%

**Q.** And the “% Remaining” value ([3]; 300 min)?
**A.** 15.3 ± 1.0%

**Q.** And the Plasma stability classification [4]?
**A.** unstable

**Q.** What about the “% Remaining” value ([4]; 0 min) of the same molecule?
**A.** 100%

**Q.** What about the Metabolites found ([4]; 30 and 120 min, 50 μM) of the same molecule?
**A.** Three metabolites

**Q.** What about the “% Remaining” value ([4]; 15 min) of the same molecule?
**A.** 38.7 ± 3.4%

**Q.** What about the “% Remaining” value ([4]; 30 min) of the same molecule?
**A.** 10.2 ± 1.0%

**Q.** And the “% Remaining” value ([4]; 60 min)?
**A.** 7.4 ± 0.1%

**Q.** What about the “% Remaining” value ([4]; 120 min) of the same molecule?
**A.** 4.4 ± 0.7%

**Q.** And the “% Remaining” value ([4]; 300 min)?
**A.** 1.9 ± 0.1%

**Q.** And the Plasma stability classification [5]?
**A.** unstable

**Q.** What about the “% Remaining” value ([5]; 0 min) of the same molecule?
**A.** 100%

**Q.** What about the “% Remaining” value ([5]; 15 min) of the same molecule?
**A.** 102.4 ± 3.3%

**Q.** What about the “% Remaining” value ([5]; 30 min) of the same molecule?
**A.** 73.3 ± 5.0%

**Q.** What about the “% Remaining” value ([5]; 60 min) of the same molecule?
**A.** 78.6 ± 2.9%

**Q.** And the “% Remaining” value ([5]; 120 min)?
**A.** 33.7 ± 2.3%

**Q.** What about the “% Remaining” value ([5]; 300 min) of the same molecule?
**A.** 10.8 ± 0.3%

**Q.** And the Metabolites found ([6]; 60 and 300 min, 50 μM)?
**A.** two of them

**Q.** And the Plasma stability classification ([6]; first experiment)?
**A.** unstable

**Q.** And the “% Remaining” value ([6]; first experiment, 0 min)?
**A.** 100%

**Q.** And the “% Remaining” value ([6]; first experiment, 15 min)?
**A.** 99.7 (*) %

**Q.** And the “% Remaining” value ([6]; first experiment, 30 min)?
**A.** 40.4 ± 15.5%

**Q.** What about the “% Remaining” value ([6]; first experiment, 60 min) of the same molecule?
**A.** 36.1 ± 7.6%

**Q.** What about the “% Remaining” value ([6]; first experiment, 120 min) of the same molecule?
**A.** 17.4 ± 2.6%

**Q.** What about the “% Remaining” value ([6]; first experiment, 300 min) of the same molecule?
**A.** 7.8 ± 3.3%

**Q.** And the “% Remaining” value ([7]; 0 h)?
**A.** 100%

**Q.** And the “% Remaining” value ([7]; 0.25 h)?
**A.** 100.6 ± 14.5%

**Q.** And the “% Remaining” value ([7]; 0.5 h)?
**A.** 90.3 ± 13.3%

**Q.** What about the “% Remaining” value ([7]; 2 h) of the same molecule?
**A.** 69.8 ± 16.8%

**Q.** And the “Local side effects (swelling, ulcerations)” value [8]?
**A.** No local side effects

**Q.** What about the “Intracellular Concentration” value (RAW.264 cells; incubation 1 hours) of the same molecule?
**A.** 5.50 % of total

**Q.** And the “Intracellular Concentration” value (RAW.264 cells; incubation 6 hours)?
**A.** 4.27 % of total

**Q.** And the “Intracellular Concentration” value (RAW.264 cells; incubation 16 hours)?
**A.** 1.53 % of total

**Q.** Which results are given for `COc1cc(N)c(Cl)cc1C(=O)OCCN1CCCCC1` [Compound M7319, 2-Piperidinoethyl 4-amino-5-chloro-2-methoxybenzoate, reference compound]?
**A.** % Remaining ([7]; 0 h, 4.16 μM): 100%; % Remaining ([7]; 1 h, 4.16 μM): 23.3 ± 1.4%; % Remaining ([7]; 5 h, 4.16 μM): 0.01 ± 0.01%
